Reference: patent publication US8188090B2, “Naphthylacetic acids” (Hoffman-La Roche Inc., priority 2008, dated 2012)

What was measured:
[1] = target: T1, human CRTH2 (Homo sapiens, UniProt Q9Y5Y4); experiment: Human CRTH2 Receptor Binding Assay (whole cell, [3H]ramatroban); design: expressed in transfected cells; host or cells: CHO-K1; conditions: whole CHO-K1 cells stably expressing human CRTH2 and G-alpha16; 20 nM [3H]ramatroban; 1 hour, room temperature
T1 sequence (Q9Y5Y4 1-395): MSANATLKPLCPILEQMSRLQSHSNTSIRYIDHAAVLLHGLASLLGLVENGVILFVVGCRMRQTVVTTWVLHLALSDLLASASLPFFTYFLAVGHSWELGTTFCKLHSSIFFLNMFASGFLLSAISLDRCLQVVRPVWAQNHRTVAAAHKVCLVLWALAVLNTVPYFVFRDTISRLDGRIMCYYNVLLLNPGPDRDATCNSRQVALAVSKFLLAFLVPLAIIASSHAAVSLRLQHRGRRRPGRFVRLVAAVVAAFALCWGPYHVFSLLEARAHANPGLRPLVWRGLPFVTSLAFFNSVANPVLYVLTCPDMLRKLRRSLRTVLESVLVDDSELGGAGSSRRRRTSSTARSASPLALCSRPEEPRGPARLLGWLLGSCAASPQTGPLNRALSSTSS
From the text: A whole cell receptor binding assay using [^3H]ramatroban as the competing radioactive ligand was employed to evaluate the compound binding activity to human CRTH2. The radioactive ligand [^3H]ramatroban was synthesized according to Sugimoto et. al. (Eur. J. Pharmacol. 524, 30-37, 2005) to a specific activity of 42 Ci/mmol.
A cell line stably expressing human CRTH2 was established by transfecting CHO-K1 cells with two mammalian expression vectors that harbored human CRTH2 and G-alpha16 cDNAs, respectively, using FuGene® 6 transfection reagent (from Roche). Stable clones expressing CRTH2 were selected by staining each clone with BM16 (BD Pharmingen™ from BD Biosciences, a division of Becton, Dickinson and Company), which is a rat monoclonal antibody to human CRTH2. The cells were maintained as monolayer cultures in Ham's F-12 medium containing 10% fetal bovine serum, 100 units/mL penicillin, 100 μg/mL streptomycin, 2 mM glutamine, 0.5 mg/mL G418 (geneticin) for CRTH2, and 0.2 mg/mL hygromycin-B (for G-alpha 16). For whole cell receptor binding assay, the monolayer cells were rinsed once with PBS (phosphate buffered saline), dissociated using ethylenediaminetetraacetate (Versene™ EDTA from Lonza Inc.), and suspended in PBS containing 10 mM MgCl2 and 0.06% BSA (bovine serum albumin) at 1.5×10^6 cells/mL.
The binding reactions (0.2 mL) were performed in 96-well plates at room temperature in PBS containing 1.5×10^5 cells, 10 mM MgCl2, 0.06% BSA, 20 nM [^3H]ramatroban, and test compound at various concentrations. After 1 hour of binding reactions, the cells were harvested on GF™/B filter microplates (microtiter plates with embedded glass fiber from PerkinElmer, Inc.) and washed 5 times with PBS using a Filtermate™ Harvester (a cell harvester that harvests and washes cells from microplates from PerkinElmer, Inc.). The radioactivities bound to the cells were determined using a microplate scintillation counter (TopCount® NXT, from PerkinElmer, Inc.) after adding 50 μL of Microscint™ 20 scintillation fluid (from PerkinElmer, Inc.) to each well of the filter plates. The radioactivity from non-specific binding was determined by replacing compound with 10 μM of 15(R)-15-methyl PGD2 (from Cayman Chemical Company) in the reaction mixtures. The radioactivity bound to the cells in the absence of compound (total binding) was determined by replacing compound with 0.25% of DMSO (dimethyl sulfoxide) in the reaction mixture. Specific binding data were obtained by subtracting the radioactivity of non-specific binding from each binding data.
The IC50 value is defined as the concentration of the tested compound that is required for 50% inhibition of total specific binding. In order to calculate the IC50 value, the percent inhibition data were determined for 7 concentrations for each compound. The percent inhibition for a compound at each concentration was calculated according to the following formula, [1-(specific binding in the presence of compound)/(total specific binding)]×100. The IC50 value was then obtained by fitting the percent inhibition data to a sigmoidal dose-response (4 parameter logistic) model in the XLfit® software Excel add-in program [from ID Business Solutions Ltd., model 205, where F(x)=(A+(B−A)/(1+((C/x)^D)))].

[2] = target: T1, human CRTH2; experiment: Calcium Flux Assay Using Fluorometric Imaging Plate Reader (FLIPR); type: cell-based; design: expressed in transfected cells; host or cells: CHO-K1 (previously transfected with G-alpha 16); conditions: CHO-K1 cells transfected with G-alpha 16 and human CRTH2 receptor; inhibition of ligand (DK-PGD2) induced Ca2+ flux
Protocol: Calcium Flux Assay Using Fluorometric Imaging Plate Reader Cell Culture Conditions:
CHO-K1 cells previously transfected with G-alpha 16 were subsequently transfected with the human CRTH2 receptor and the neomycin resistance gene. Following selection in 800 μg/mL G418 (geneticin), individual clones were assayed for their receptor expression based on staining with an anti human CRTH2 IgG, followed by assaying for their response to 13,14-dihydro-15-keto Prostaglandin D2 (DK-PDG2) (ligand) in the Ca^2+Flux assay. Positive clones were then cloned by limiting dilution cloning. The transfected cells were cultured in Ham's F-12 medium supplemented with 10% fetal bovine serum, 2 mM glutamine, 100 U/mL penicillin/100 μg/mL streptomycin, 200 μg/mL hygromycin B, and 800 μg/mL G418 (geneticin). Cells were harvested with trypsin-EDTA (trypsin-ethylenediaminetetraacetic acid) and counted using ViaCount® reagent (from Guava Technologies, Inc. which contains two DNA-binding dyes that enable the reagent user to distinguish between viable and non-viable cells). The cell suspension volume was adjusted to 2.5×10^5 cells/mL with complete growth media. Aliquots of 50 μL were dispensed into BD Falcon™ 384 well black/clear microplates (from BD Biosciences, a division of Becton, Dickinson and Company) and the microplates were placed in a 37° C. CO2 incubator overnight. The following day, the microplates were used in the assay.
Loading Buffer containing dye (from the FLIPR® Calcium 3 Assay Kit from Molecular Devices, a division of MDS Analytical Technologies and MDS Inc.) was prepared by dissolving the contents of one bottle into 200 mL Hank's Balanced Salt Solution containing 20 mM HEPES (4-(2-hydroxyethyl)-1-piperazineethanesulfonic acid) and 2.5 mM probenecid. Growth media was removed from the cell plates and 25 μL of Hank's Balanced Salt Solution (HBSS) containing 20 mM HEPES, 0.05% BSA and 2.5 mM probenecid was added to each well followed by 25 μL of diluted dye using a Multidrop dispenser. The plates were then incubated for 1 hour at 37° C.
During the incubation, test compound plates were prepared by adding 90 μL of HBSS/20 mM HEPES/0.005% BSA buffer to the 2 μL of serial diluted compounds. To prepare serial diluted compounds, 20 mM stocks of compounds were dissolved in 100% DMSO. The compound dilution plate was set up as follows: well #1 received 5 μL of compound plus 10 μL of DMSO. Wells 2-10 received 10 μL of DMSO. 5 μL was mixed and transferred from well #1 into well #2. 1:3 serial dilutions were continued out 10 steps. […]
After incubation, both the cell and “assay plate” plates were brought to the fluorometric imaging plate reader (FLIPR®) and 20 μL of the diluted compounds were transferred to the cell plates by the FLIPR®. […] During the assay, fluorescence readings were taken simultaneously from all 384 wells of the cell plate every 1.5 seconds. Five readings were taken to establish a stable baseline, then 20 μL of sample was rapidly (30 μL/sec) and simultaneously added to each well of the cell plate. The fluorescence was continuously monitored before, during and after sample addition for a total elapsed time of 100 seconds. Responses (increase in peak fluorescence) in each well following agonist addition were determined. The initial fluorescence reading from each well, prior to ligand stimulation, was used as a zero baseline value for the data from that well. The responses were expressed as % inhibition of the buffer control. […]

Structure (SMILES) | IC50 [1] [nM] | IC50 [2] [nM]
COc1ccccc1N1CCN(C(=O)c2c(C)c(CC(=O)O)cc3ccc(F)cc23)CC1 [Example 2-8, {6-Fluoro-4-[4-(2-methoxy-phenyl)-piperazine-1-carbonyl]-3-methyl-naphthalen-2-yl}-acetic acid] | 458 | > 5000
CCc1ccccc1N1CCN(C(=O)c2c(C)c(CC(=O)O)cc3ccc(F)cc23)CC1 [Example 2-10, {4-[4-(2-Ethyl-phenyl)-piperazine-1-carbonyl]-6-fluoro-3-methyl-naphthalen-2-yl}-acetic acid] | 450 | > 5000
Cc1c(CC(=O)O)cc2ccc(F)cc2c1C(=O)N1CCN(c2ccccc2C(F)(F)F)CC1 [Example 2-15, {6-Fluoro-3-methyl-4-[4-(2-trifluoromethyl-phenyl)-piperazine-1-carbonyl]-naphthalen-2-yl}-acetic acid] | 253 | > 5000
CCS(=O)(=O)N1CCC(Oc2cc(CC(=O)O)cc3ccc(F)cc23)CC1 [Example 4-2, [4-(1-Ethanesulfonyl-piperidin-4-yloxy)-6-fluoro-naphthalen-2-yl]-acetic acid] | 20.3 | > 5000
CC(=O)N1CCC(Oc2cc(CC(=O)O)cc3ccc(F)cc23)CC1 [Example 5-1, [4-(1-Acetyl-piperidin-4-yloxy)-6-fluoro-naphthalen-2-yl]-acetic acid] | 163 | > 5000
O=C(O)Cc1cc(OC2CCN(C(=O)c3ccccc3F)CC2)c2cc(F)ccc2c1 [Example 5-7, {6-Fluoro-4-[1-(2-fluoro-benzoyl)-piperidin-4-yloxy]-naphthalen-2-yl}-acetic acid] | 19.4 | –
O=C(O)Cc1cc(OC2CCN(C(=O)c3cccc(F)c3)CC2)c2cc(F)ccc2c1 [Example 5-8, {6-Fluoro-4-[1-(3-fluoro-benzoyl)-piperidin-4-yloxy]-naphthalen-2-yl}-acetic acid] | 29.8 | –
O=C(O)Cc1cc(OC2CCN(C(=O)c3ccc(F)cc3)CC2)c2cc(F)ccc2c1 [Example 5-9, {6-Fluoro-4-[1-(4-fluoro-benzoyl)-piperidin-4-yloxy]-naphthalen-2-yl}-acetic acid] | 31.3 | –
O=C(O)Cc1cc(OC2CCN(C(=O)Cc3ccccc3)CC2)c2cc(F)ccc2c1 [Example 5-10, [6-Fluoro-4-(1-phenylacetyl-piperidin-4-yloxy)-naphthalen-2-yl]-acetic acid] | 2.9 | –
CCNC(=O)N1CCC(Oc2cc(CC(=O)O)cc3ccc(F)cc23)CC1 [Example 6-1, [4-(1-Ethylcarbamoyl-piperidin-4-yloxy)-6-fluoro-naphthalen-2-yl]-acetic acid] | 24.5 | –
O=C(O)Cc1cc(OC2CCN(C(=O)Nc3ccccc3F)CC2)c2cc(F)ccc2c1 [Example 6-2, {6-Fluoro-4-[1-(2-fluoro-phenylcarbomoyl)-piperidin-4-yloxy]-naphthalen-2-yl}-acetic acid] | 4.3 | –
O=C(O)Cc1cc(OC2CCN(C(=O)Nc3cccc(F)c3)CC2)c2cc(F)ccc2c1 [Example 6-3, {6-Fluoro-4-[1-(3-fluoro-phenylcarbamoyl)-piperidin-4-yloxy]-naphthalen-2-yl}-acetic acid] | 3 | –
O=C(O)Cc1cc(OC2CCN(C(=O)Nc3ccc(F)cc3)CC2)c2cc(F)ccc2c1 [Example 6-4, {6-Fluoro-4-[1-(4-fluoro-phenylcarbamoyl)-piperidin-4-yloxy]-naphthalen-2-yl}-acetic acid] | 5 | –
O=C(O)Cc1cc(OC2CCN(C(=O)NCCc3ccccc3)CC2)c2cc(F)ccc2c1 [Example 6-5, [6-Fluoro-4-(1-phenethylcarbamoyl-piperidin-4-yloxy)-naphthalen-2-yl]-acetic acid] | 4 | –
